Calls of active or inactive are those of the source. The calls are words filed in the database; no cut-off is given here.
Experiments:
Meloidogyne incognita [1] = test: Nematicidal activity against second-stage juvenile Meloidogyne incognita (root-knot nematode) infested tomato field assessed as extra-large fruit yield at 5 L/hectare; format: functional
Meloidogyne incognita [2] = test: Nematicidal activity against second-stage juvenile Meloidogyne incognita (root-knot nematode) infested tomato field assessed as large fruit yield at 10 L/hectare; format: functional
Meloidogyne incognita [3] = test: Nematicidal activity against second-stage juvenile Meloidogyne incognita (root-knot nematode) infested tomato field assessed as extra-large fruit yield at 10 L/hectare; format: functional
Meloidogyne incognita [4] = test: Nematicidal activity against second-stage juvenile Meloidogyne incognita (root-knot nematode) infested tomato field assessed as plant height at 5 L/hectare measured after 30 days; format: functional
Meloidogyne incognita [5] = test: Nematicidal activity against second-stage juvenile Meloidogyne incognita (root-knot nematode) infested tomato field assessed as reduction in number of nematodes in soil at 10 L/hectare measured after 60 days; format: functional, organism-based
Meloidogyne incognita [6] = test: Nematicidal activity against second-stage juvenile Meloidogyne incognita (root-knot nematode) infested tomato field assessed as reduction in root galling index at 7.5 L/hectare measured after 30 days; format: functional, organism-based
Meloidogyne incognita [7] = test: Nematicidal activity against second-stage juvenile Meloidogyne incognita (root-knot nematode) infested tomato field assessed as large fruit yield at 7.5 L/hectare; format: functional
Meloidogyne incognita [8] = test: Nematicidal activity against second-stage juvenile Meloidogyne incognita (root-knot nematode) infested tomato field assessed as extra-large fruit yield at 7.5 L/hectare; format: functional
Meloidogyne incognita [9] = test: Nematicidal activity against second-stage juvenile Meloidogyne incognita (root-knot nematode) infested tomato field assessed as marketable yield at 10 L/hectare; format: functional
Meloidogyne incognita [10] = test: Nematicidal activity against second-stage juvenile Meloidogyne incognita (root-knot nematode) infested tomato field assessed as reduction in root galling index at 5 L/hectare measured after 30 days; format: functional, organism-based
Meloidogyne incognita [11] = test: Nematicidal activity against second-stage juvenile Meloidogyne incognita (root-knot nematode) infested tomato field assessed as reduction in number of nematodes in soil at 5 L/hectare measured after 40 days; format: functional, organism-based
Meloidogyne incognita [12] = test: Nematicidal activity against second-stage juvenile Meloidogyne incognita (root-knot nematode) infested tomato field assessed as medium fruit yield at 5 L/hectare; format: functional
Meloidogyne incognita [13] = test: Nematicidal activity against second-stage juvenile Meloidogyne incognita (root-knot nematode) infested tomato field assessed as reduction in root galling index at 10 L/hectare measured after 30 days; format: functional, organism-based
Meloidogyne incognita [14] = test: Nematicidal activity against second-stage juvenile Meloidogyne incognita (root-knot nematode) infested tomato plant under greenhouse condition assessed as reduction in root galling index at 10 L/hectare measured after 30 days; format: functional, organism-based
Meloidogyne incognita [15] = test: Nematicidal activity against second-stage juvenile Meloidogyne incognita (root-knot nematode) infested tomato field assessed as plant height at 5 L/hectare measured after 50 days; format: functional
Meloidogyne incognita [16] = test: Nematicidal activity against second-stage juvenile Meloidogyne incognita (root-knot nematode) infested tomato field assessed as plant height at 10 L/hectare measured after 30 days; format: functional
Meloidogyne incognita [17] = test: Nematicidal activity against second-stage juvenile Meloidogyne incognita (root-knot nematode) infested tomato field assessed as plant height at 7.5 L/hectare measured after 50 days; format: functional
Meloidogyne incognita [18] = test: Nematicidal activity against second-stage juvenile Meloidogyne incognita (root-knot nematode) infested tomato plant under greenhouse condition assessed as plant vigour at 7.5 L/hectare measured after 30 days; format: functional
Meloidogyne incognita [19] = test: Nematicidal activity against second-stage juvenile Meloidogyne incognita (root-knot nematode) infested tomato plant under greenhouse condition assessed as fresh root weight at 5 L/hectare measured after 30 days; format: functional
Meloidogyne incognita [20] = test: Nematicidal activity against second-stage juvenile Meloidogyne incognita (root-knot nematode) infested tomato field assessed as reduction in number of nematodes in soil at 5 L/hectare measured after 20 days; format: functional, organism-based
Meloidogyne incognita [21] = test: Nematicidal activity against second-stage juvenile Meloidogyne incognita (root-knot nematode) infested tomato field assessed as marketable yield at 5 L/hectare; format: functional
Meloidogyne incognita [22] = test: Nematicidal activity against second-stage juvenile Meloidogyne incognita (root-knot nematode) infested tomato plant under greenhouse condition assessed as plant vigour at 5 L/hectare measured after 30 days; format: functional
Meloidogyne incognita [23] = test: Nematicidal activity against second-stage juvenile Meloidogyne incognita (root-knot nematode) infested tomato plant under greenhouse condition assessed as plant height at 5 L/hectare measured after 30 days; format: functional
Meloidogyne incognita [24] = test: Nematicidal activity against second-stage juvenile Meloidogyne incognita (root-knot nematode) infested tomato field assessed as medium fruit yield at 7.5 L/hectare; format: functional
Meloidogyne incognita [25] = test: Nematicidal activity against second-stage juvenile Meloidogyne incognita (root-knot nematode) infested tomato plant under greenhouse condition assessed as plant height at 7.5 L/hectare measured after 30 days; format: functional
Meloidogyne incognita [26] = test: Nematicidal activity against second-stage juvenile Meloidogyne incognita (root-knot nematode) infested tomato field assessed as reduction in number of nematodes in soil at 10 L/hectare measured after 40 days; format: functional, organism-based
Meloidogyne incognita [27] = test: Nematicidal activity against second-stage juvenile Meloidogyne incognita (root-knot nematode) infested tomato plant under greenhouse condition assessed as fresh root weight at 7.5 L/hectare measured after 30 days; format: functional
Meloidogyne incognita [28] = test: Nematicidal activity against second-stage juvenile Meloidogyne incognita (root-knot nematode) infested tomato field assessed as large fruit yield at 5 L/hectare; format: functional
Meloidogyne incognita [29] = test: Nematicidal activity against second-stage juvenile Meloidogyne incognita (root-knot nematode) infested tomato field assessed as plant vigour at 7.5 L/hectare measured after 30 days; format: functional
Meloidogyne incognita [30] = test: Nematicidal activity against second-stage juvenile Meloidogyne incognita (root-knot nematode) infested tomato plant under greenhouse condition assessed as reduction in root galling index at 5 L/hectare measured after 30 days; format: functional, organism-based
Meloidogyne incognita [31] = test: Nematicidal activity against second-stage juvenile Meloidogyne incognita (root-knot nematode) infested tomato field assessed as plant vigour at 5 L/hectare measured after 30 days; format: functional
Meloidogyne incognita [32] = test: Nematicidal activity against second-stage juvenile Meloidogyne incognita (root-knot nematode) assessed as mortality after 48 hr; format: functional
Meloidogyne incognita [33] = test: Nematicidal activity against second-stage juvenile Meloidogyne incognita (root-knot nematode) infested tomato field assessed as reduction in number of nematodes in soil at 5 L/hectare measured after 60 days; format: functional, organism-based
Meloidogyne incognita [34] = test: Nematicidal activity against Meloidogyne incognita (root-knot nematode) assessed as per seed; format: functional, organism-based
Meloidogyne incognita [35] = test: Nematicidal activity against second-stage juvenile Meloidogyne incognita (root-knot nematode) infested tomato plant under greenhouse condition assessed as fresh root weight at 10 L/hectare measured after 30 days; format: functional
Meloidogyne incognita [36] = test: Nematicidal activity against second-stage juvenile Meloidogyne incognita (root-knot nematode) infested tomato plant under greenhouse condition assessed as plant vigour at 10 L/hectare measured after 30 days; format: functional
Meloidogyne incognita [37] = test: Nematicidal activity against second-stage juvenile Meloidogyne incognita (root-knot nematode) infested tomato field assessed as reduction in number of nematodes in soil at 10 L/hectare measured after 20 days; format: functional, organism-based
Meloidogyne incognita [38] = test: Nematicidal activity against second-stage juvenile Meloidogyne incognita (root-knot nematode) infested tomato field assessed as medium fruit yield at 10 L/hectare; format: functional
Meloidogyne incognita [39] = test: Nematicidal activity against second-stage juvenile Meloidogyne incognita (root-knot nematode) infested tomato plant under greenhouse condition assessed as reduction in root galling index at 7.5 L/hectare measured after 30 days; format: functional, organism-based
Meloidogyne incognita [40] = test: Nematicidal activity against second-stage juvenile Meloidogyne incognita (root-knot nematode) infested tomato field assessed as reduction in number of nematodes in soil at 7.5 L/hectare measured after 40 days; format: functional, organism-based
Meloidogyne incognita [41] = test: Nematicidal activity against second-stage juvenile Meloidogyne incognita (root-knot nematode) infested tomato field assessed as plant vigour at 10 L/hectare measured after 30 days; format: functional
Meloidogyne incognita [42] = test: Nematicidal activity against second-stage juvenile Meloidogyne incognita (root-knot nematode) infested tomato plant under greenhouse condition assessed as plant height at 10 L/hectare measured after 30 days; format: functional
Meloidogyne incognita [43] = test: Nematicidal activity against second-stage juvenile Meloidogyne incognita (root-knot nematode) infested tomato field assessed as reduction in number of nematodes in soil at 7.5 L/hectare measured after 20 days; format: functional, organism-based
Meloidogyne incognita [44] = test: Nematicidal activity against second-stage juvenile Meloidogyne incognita (root-knot nematode) infested tomato field assessed as reduction in number of nematodes in soil at 7.5 L/hectare measured after 60 days; format: functional, organism-based
Meloidogyne incognita [45] = test: Nematicidal activity against second-stage juvenile Meloidogyne incognita (root-knot nematode) infested tomato field assessed as plant height at 10 L/hectare measured after 50 days; format: functional
Meloidogyne incognita [46] = test: Nematicidal activity against second-stage juvenile Meloidogyne incognita (root-knot nematode) infested tomato field assessed as plant height at 7.5 L/hectare measured after 30 days; format: functional
Meloidogyne incognita [47] = test: Nematicidal activity against second-stage juvenile Meloidogyne incognita (root-knot nematode) infested tomato field assessed as marketable yield at 7.5 L/hectare; format: functional

Work on CC[C@H](C)[C@H]1O[C@]2(C=C[C@@H]1C)C[C@@H]1C[C@@H](C/C=C(\C)[C@@H](O[C@H]3C[C@H](OC)[C@@H](O[C@H]4C[C@H](OC)[C@@H](O)[C@H](C)O4)[C@H](C)O3)[C@@H](C)/C=C/C=C3\CO[C@@H]4[C@H](O)C(C)=C[C@@H](C(=O)O1)[C@]34O)O2.CO[C@H]1C[C@H](O[C@H]2[C@H](C)O[C@@H](O[C@@H]3/C(C)=C/C[C@@H]4C[C@@H](C[C@]5(C=C[C@H](C)[C@@H](C(C)C)O5)O4)OC(=O)[C@@H]4C=C(C)[C@@H](O)[C@H]5OC/C(=C\C=C\[C@@H]3C)[C@]54O)C[C@@H]2OC)O[C@@H](C)[C@@H]1O [ABAMECTIN] yielded an Activity (Meloidogyne incognita [1]) of 5.3%, an Activity (Meloidogyne incognita [2]) of 20.6% and an Activity (Meloidogyne incognita [3]) of 7.3%. The Activity (Meloidogyne incognita [4]) was 32.4 cm, the Activity (Meloidogyne incognita [5]) was “Active” and the Activity (Meloidogyne incognita [6]) was “Active”. The Activity (Meloidogyne incognita [7]) was 18.1%, the Activity (Meloidogyne incognita [8]) was 5.8% and the Activity (Meloidogyne incognita [9]) was 69.2%. For the same compound, the Activity (Meloidogyne incognita [10]) was “Active”, the Activity (Meloidogyne incognita [11]) was “Active” and the Activity (Meloidogyne incognita [12]) was 36.7%. For the same compound, the Activity (Meloidogyne incognita [13]) was “Active”, the Activity (Meloidogyne incognita [14]) was “Active” and the Activity (Meloidogyne incognita [15]) was 94.3 cm. For the same compound, the Activity (Meloidogyne incognita [16]) was 39.1 cm, the Activity (Meloidogyne incognita [17]) was 98.6 cm and the Activity (Meloidogyne incognita [18]) was 87%. The Activity (Meloidogyne incognita [19]) was 0.98 g, the Activity (Meloidogyne incognita [20]) was “Active” and the Activity (Meloidogyne incognita [21]) was 59.4%. It also gave an Activity (Meloidogyne incognita [22]) of 85%, an Activity (Meloidogyne incognita [23]) of 35.4 cm and an Activity (Meloidogyne incognita [24]) of 39.5%. For the same compound, the Activity (Meloidogyne incognita [25]) was 37.5 cm, the Activity (Meloidogyne incognita [26]) was “Active” and the Activity (Meloidogyne incognita [27]) was 1.09 g. For the same compound, the Activity (Meloidogyne incognita [28]) was 17.4%, the Activity (Meloidogyne incognita [29]) was 87% and the Activity (Meloidogyne incognita [30]) was “Active”. The Activity (Meloidogyne incognita [31]) was 85%, the LC50 (Meloidogyne incognita [32]) was 7.06 mgAi/L and the LC90 (Meloidogyne incognita [32]) was 21.81 mgAi/L. The Activity (Meloidogyne incognita [33]) was “Active”, the EC50 (Meloidogyne incognita [34]) was 0.016 mgAi and the EC80 (Meloidogyne incognita [34]) was 0.28 mgAi. The Activity (Meloidogyne incognita [35]) was 1.14 g, the Activity (Meloidogyne incognita [36]) was 92% and the Activity (Meloidogyne incognita [37]) was “Active”. The Activity (Meloidogyne incognita [38]) was 41.3%, the Activity (Meloidogyne incognita [39]) was “Active” and the Activity (Meloidogyne incognita [40]) was “Active”. For the same compound, the Activity (Meloidogyne incognita [41]) was 92%, the Activity (Meloidogyne incognita [42]) was 39.2 cm and the Activity (Meloidogyne incognita [43]) was “Active”. For the same compound, the Activity (Meloidogyne incognita [44]) was “Active”, the Activity (Meloidogyne incognita [45]) was 102.8 cm and the Activity (Meloidogyne incognita [46]) was 35.9 cm. The Activity (Meloidogyne incognita [47]) was 63.4%.
